# Measured values as given in ChEMBL document CHEMBL1201862, “PubChem BioAssay data set” (2004).
#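 96-well plates; 48 h exposure; 5 concentrations. Endpoints by linear interpolation between flanking doses. Not reached: highest tested concentration assigned. Here, GI50 denotes the concentration required for 50% inhibition of growth.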 Active and inactive are the calls of the source. Rule as the data show it: active = GI50 up to about 1.1 µM and inactive = higher.
# Assays:
# Assay in all cases: NCI anticancer screen, dose series, 48 h
# 786-0 = system: 786-0
# A498 = system: A498
# A549 = system: A549
# ACHN = system: ACHN
# BT-549 = system: BT-549
# CAKI-1 = system: CAKI-1
# CCRF-CEM = system: CCRF-CEM
# COLO 205 = system: COLO 205
# DU-145 = system: DU-145
# EKVX = system: EKVX
# HCC 2998 = system: HCC 2998
# HCT-116 = system: HCT-116
# HCT-15 = system: HCT-15
# HL-60 = system: HL-60
# HOP-62 = system: HOP-62
# HOP-92 = system: HOP-92
# HT-29 = system: HT-29
# Hs-578T = system: Hs-578T
# IGROV-1 = system: IGROV-1
# K562 = system: K562
# KM12 = system: KM12
# LOX IMVI = system: LOX IMVI
# M14 = system: M14
# MCF7 = system: MCF7
# MDA-MB-231 = system: MDA-MB-231
# MDA-MB-435 = system: MDA-MB-435
# MDA-N = system: MDA-N
# MOLT-4 = system: MOLT-4
# Malme-3M = system: Malme-3M
# NCI-H226 = system: NCI-H226
# NCI-H23 = system: NCI-H23
# NCI-H460 = system: NCI-H460
# NCI-H522 = system: NCI-H522
# OVCAR-3 = system: OVCAR-3
# OVCAR-4 = system: OVCAR-4
# OVCAR-5 = system: OVCAR-5
# OVCAR-8 = system: OVCAR-8
# PC-3 = system: PC-3
# RPMI-8226 = system: RPMI-8226
# SF-268 = system: SF-268
# SF-295 = system: SF-295
# SF-539 = system: SF-539
# SK-MEL-28 = system: SK-MEL-28
# SK-MEL-2 = system: SK-MEL-2
# SK-MEL-5 = system: SK-MEL-5
# SK-OV-3 = system: SK-OV-3
# SN12C = system: SN12C
# SNB-19 = system: SNB-19
# SNB-75 = system: SNB-75
# SR = system: SR
# SW-620 = system: SW-620
# T47D = system: T47D
# TK-10 = system: TK-10
# U-251 = system: U-251
# UACC-257 = system: UACC-257
# UACC-62 = system: UACC-62
# NCI/ADR-RES = system: NCI/ADR-RES
# RXF 393 = system: RXF 393
# UO-31 = system: UO-31
smiles,measurement,setting,value
C/C(=C1/N=C(c2ccccc2)OC1=O)c1ccccc1,GI50,786-0,> 100 µM (inactive)
same,GI50,A498,> 100 µM (inactive)
same,GI50,A549,> 100 µM (inactive)
same,GI50,ACHN,74.6 µM (inactive)
same,GI50,BT-549,> 100 µM (inactive)
same,GI50,CAKI-1,> 100 µM (inactive)
same,GI50,CCRF-CEM,33.4 µM (inactive)
same,GI50,COLO 205,> 100 µM (inactive)
same,GI50,DU-145,> 100 µM (inactive)
same,GI50,EKVX,> 100 µM (inactive)
same,GI50,HCC 2998,> 100 µM (inactive)
same,GI50,HCT-116,> 100 µM (inactive)
same,GI50,HCT-15,99.1 µM
same,GI50,HL-60,25.6 µM (inactive)
same,GI50,HOP-62,> 100 µM (inactive)
same,GI50,HOP-92,> 100 µM (inactive)
same,GI50,HT-29,> 100 µM (inactive)
same,GI50,Hs-578T,46.3 µM (inactive)
same,GI50,IGROV-1,68.2 µM (inactive)
same,GI50,K562,> 100 µM (inactive)
same,GI50,KM12,61.4 µM (inactive)
same,GI50,LOX IMVI,33.5 µM (inactive)
same,GI50,M14,> 100 µM (inactive)
same,GI50,MCF7,82 µM (inactive)
same,GI50,MDA-MB-231,> 100 µM (inactive)
same,GI50,MDA-MB-435,87.3 µM (inactive)
same,GI50,MDA-N,> 100 µM (inactive)
same,GI50,MOLT-4,95.1 µM (inactive)
same,GI50,Malme-3M,53.2 µM (inactive)
same,GI50,NCI-H226,> 100 µM (inactive)
same,GI50,NCI-H23,> 100 µM (inactive)
same,GI50,NCI-H460,> 100 µM (inactive)
same,GI50,NCI-H522,85.3 µM (inactive)
same,GI50,OVCAR-3,74.5 µM (inactive)
same,GI50,OVCAR-4,> 100 µM (inactive)
same,GI50,OVCAR-5,> 100 µM (inactive)
same,GI50,OVCAR-8,> 100 µM (inactive)
same,GI50,PC-3,> 100 µM (inactive)
same,GI50,RPMI-8226,23.3 µM (inactive)
same,GI50,SF-268,> 100 µM (inactive)
same,GI50,SF-295,76.2 µM (inactive)
same,GI50,SF-539,48.6 µM (inactive)
same,GI50,SK-MEL-28,> 100 µM (inactive)
same,GI50,SK-MEL-2,> 100 µM (inactive)
same,GI50,SK-MEL-5,> 100 µM (inactive)
same,GI50,SK-OV-3,> 100 µM (inactive)
same,GI50,SN12C,> 100 µM (inactive)
same,GI50,SNB-19,> 100 µM (inactive)
same,GI50,SNB-75,> 100 µM (inactive)
same,GI50,SR,39.5 µM (inactive)
same,GI50,SW-620,57.5 µM (inactive)
same,GI50,T47D,> 100 µM (inactive)
same,GI50,TK-10,87.3 µM (inactive)
same,GI50,U-251,> 100 µM (inactive)
same,GI50,UACC-257,> 100 µM (inactive)
same,GI50,UACC-62,> 100 µM (inactive)
C[N+]1(C)C2Cc3ccccc3C1Cc1ccccc12,GI50,786-0,> 100 µM (inactive)
same,GI50,A498,> 100 µM (inactive)
same,GI50,A549,> 100 µM (inactive)
same,GI50,ACHN,> 100 µM (inactive)
same,GI50,BT-549,> 100 µM (inactive)
same,GI50,CCRF-CEM,> 100 µM (inactive)
same,GI50,COLO 205,> 100 µM (inactive)
same,GI50,DU-145,> 100 µM (inactive)
same,GI50,EKVX,> 100 µM (inactive)
same,GI50,HCC 2998,> 100 µM (inactive)
same,GI50,HCT-116,> 100 µM (inactive)
same,GI50,HCT-15,> 100 µM
same,GI50,HL-60,> 100 µM (inactive)
same,GI50,HOP-62,> 100 µM (inactive)
same,GI50,HOP-92,61.1 µM (inactive)
same,GI50,HT-29,> 100 µM (inactive)
same,GI50,Hs-578T,> 100 µM (inactive)
same,GI50,IGROV-1,> 100 µM (inactive)
same,GI50,KM12,> 100 µM (inactive)
same,GI50,LOX IMVI,> 100 µM (inactive)
same,GI50,M14,> 100 µM (inactive)
same,GI50,MCF7,> 100 µM (inactive)
same,GI50,MDA-MB-231,> 100 µM (inactive)
same,GI50,MDA-MB-435,> 100 µM (inactive)
same,GI50,MDA-N,78.2 µM (inactive)
same,GI50,MOLT-4,> 100 µM (inactive)
same,GI50,Malme-3M,> 100 µM (inactive)
same,GI50,NCI-H226,> 100 µM (inactive)
same,GI50,NCI-H23,> 100 µM (inactive)
same,GI50,NCI-H460,> 100 µM (inactive)
same,GI50,NCI-H522,> 100 µM (inactive)
same,GI50,NCI/ADR-RES,> 100 µM (inactive)
same,GI50,OVCAR-3,90.8 µM (inactive)
same,GI50,OVCAR-4,> 100 µM (inactive)
same,GI50,OVCAR-5,> 100 µM (inactive)
same,GI50,OVCAR-8,> 100 µM (inactive)
same,GI50,PC-3,75.7 µM (inactive)
same,GI50,RPMI-8226,62.7 µM (inactive)
same,GI50,RXF 393,> 100 µM (inactive)
same,GI50,SF-268,> 100 µM (inactive)
same,GI50,SF-295,> 100 µM (inactive)
same,GI50,SF-539,> 100 µM (inactive)
same,GI50,SK-MEL-28,> 100 µM (inactive)
same,GI50,SK-MEL-2,> 100 µM (inactive)
same,GI50,SK-MEL-5,> 100 µM (inactive)
same,GI50,SK-OV-3,> 100 µM (inactive)
same,GI50,SN12C,> 100 µM (inactive)
same,GI50,SNB-19,> 100 µM (inactive)
same,GI50,SW-620,> 100 µM (inactive)
same,GI50,T47D,> 100 µM (inactive)
same,GI50,TK-10,> 100 µM (inactive)
same,GI50,U-251,> 100 µM (inactive)
same,GI50,UACC-257,> 100 µM (inactive)
same,GI50,UACC-62,71.6 µM (inactive)
same,GI50,UO-31,> 100 µM (inactive)
